The test has as its target Heat shock protein HSP 90-alpha (Homo sapiens) (UniProt P07900). Briefly: tumor Hsp90 inhibitor potency, dose response (AID 712). The conditions noted are these: Hsp90 inhibition assay.

Active and inactive are the calls of the source. No rule for the calls is given here. Some results are limits rather than exact numbers.

What is called IC50 is the concentration that gives 50% inhibition. Regarding `CCS(=O)(=O)NCc1ccc2[nH]c3c(c2c1)CCCC3`, the IC50 was 29.2 µM.
As to `CC(=O)Oc1cccc2c1C(=O)c1c(OC(C)=O)cc(C(=O)O)cc1C2=O`, the concentration for half-maximal inhibition (IC50) was 9.23 µM.
With `NCCCCCNc1cc(O)cc2cccnc12` the figure was below 1.56 µM.
In the case of `CCOC(=O)C1=C(C)OC(N)=C(C(=O)OCC)C1c1cccnc1` (centres undefined) it was > 50 µM (inactive); in that of `N#Cc1ccc(CSc2nnc(Nc3ccccc3)s2)cc1`, > 50 µM (inactive); in that of `COc1cccc2c1C(=O)c1c(O)c3c(c(O)c1C2=O)C[C@@](O)(C(=O)CO)C[C@@H]3O[C@H]1C[C@H](N)[C@H](O)[C@H](C)O1`, 0.266 µM.
On to `O=[N+]([O-])c1cc(S(=O)(=O)Nc2ccc(F)c(-c3c(O)ccc4c3OCO4)c2)ccc1Cl`, for which the IC50 is 25 µM.
With `CCOc1ccc(S(=O)(=O)Nc2ccc3c(c2)OCO3)c2cccnc12`, the IC50 was 16 µM.
In the case of `O=C(Cn1cnc2ccccc2c1=O)NCCC(=O)Nc1ccc2c(c1)OCCO2` it was > 50 µM (inactive); in that of `CCC(C)NCCNc1cc(OC)cc2cccnc12` (centres undefined), 3.12 µM; in that of `COc1ccc(NS(=O)(=O)c2ccccc2)c(OC)c1`, > 50 µM (inactive).
With `CCCC(C)N(CC)CCNc1cc(OC)cc2cccnc12` (centres undefined) the figure was 12.5 µM.
With `Nc1cc(N)c2cccnc2c1O` the figure was 3.13 µM; with `Cc1coc2c(O)cc3c(c12)OC1(N2CCCCC2)C(=O)NCCCC31` (centres undefined), 6.62 µM; with `COc1ccc(N2CSC3=C(C#N)C(c4ccc(OC)c(OC)c4)CC(=O)N3C2)c(OC)c1` (centres undefined), > 50 µM (inactive).
Take `Cc1ccc(S(=O)(=O)Nc2ccc(O)c(-c3ccccc3O)c2)cc1`: the IC50 is > 50 µM (inactive).
With `CCOC(=O)Cc1c[nH]c2ccc(N)cc12`, the IC50 was > 50 µM (inactive).
In the case of `O=C1C(c2c(O)[nH]c3ccc([N+](=O)[O-])cc23)=Nc2ccccc21` it was below 1.56 µM.
In the case of `O=C1C(C2=C(O)c3ccccc3C2=O)=Nc2ccccc21` it was > 50 µM (inactive); in that of `CC1=CC(C#N)(C#N)C(C#N)(C#N)C(c2ccccc2)N1` (centres undefined), 7.38 µM.
In the case of `O=C(NCCCn1ccnc1)c1noc2c1CCc1ccccc1-2` it was 13.5 µM.
On to `CCOc1ccc2ccccc2c1-c1cc(NS(=O)(=O)c2ccc(C)cc2)ccc1N`, for which the IC50 was > 50 µM (inactive).
For the compound `Cc1ccc(NC(=O)CC2SCCNC2=O)cc1Cl` (centres undefined), the IC50 is > 50 µM (inactive).
In the case of `Cc1ccccc1OCC(O)Cn1c(NCCN(C)C)nc2c1c(=O)n(C)c(=O)n2C` (centres undefined) it was > 50 µM (inactive); in that of `Nc1cc(N)nc(SCC(=O)Nc2nonc2N)n1`, > 50 µM (inactive); in that of `Cc1occc1C(=O)NC(C)C(C)(C)C` (centres undefined), > 50 µM (inactive).
In the case of `CCOC(=O)N1CCC(NC(=O)CSCc2nc(-c3sccc3C)oc2C)CC1` it was > 50 µM (inactive); in that of `CC(=O)Oc1cc2c(C(=O)NCCCN3CCOCC3)c(C)oc2c2ccccc12`, 4.65 µM.
With `NNc1ccc2c(Cl)cc(Cl)c(O)c2n1` the figure was > 50 µM (inactive); with `CC(=O)Oc1cc2oc(=O)cc(C)c2cc1OC(C)=O`, > 50 µM (inactive); with `O=c1cc(NCCCO)c2ccccc2o1`, > 50 µM (inactive).
As to `O=C1C(c2ccc3ccccc3n2)=C(O)c2ccccc21`, the IC50 was > 50 µM (inactive).
For `O=C(O)/C=C/c1ccc(O)c(O)c1`, the IC50 was > 50 µM (inactive).
For the compound `O=S(=O)(Nc1ccc(O)c(-c2c(O)ccc3ccccc23)c1)c1ccccc1`, the IC50 was 13 µM.
Take `CCOc1cc(N2CCOCC2)c(OCC)cc1NC1=NCCCCC1`: the IC50 is 13 µM.
Turning to `O=S(=O)(Cc1ccc(Cl)cc1)Nc1ccc2c(c1)OCO2`, the IC50 was > 50 µM (inactive).
With `Cc1ccc(S(=O)(=O)C(CCC(=O)N2CCOCC2)S(=O)(=O)c2ccc(C)cc2)cc1` the figure was > 50 µM (inactive); with `CC(C)CN1C(=O)NC(NC(=O)c2ccco2)(C(F)(F)F)C1=O` (centres undefined), > 50 µM (inactive).
In the case of `Nc1cc(=O)c2n[nH]nc2[nH]1` it was > 50 µM (inactive); in that of `Cc1c(N=c2c(=O)c3ccccc3c2=O)c(=O)n(-c2ccccc2)n1C`, 20.6 µM; in that of `CCCc1cc(-c2[nH]ncc2-c2ccc3c(c2)OCCCO3)c(O)cc1O`, 12.2 µM.
With `CCCC(C)C(=O)Nc1cc(OC)ccc1OC` (centres undefined) the figure was > 50 µM (inactive).
`CCOc1ccc2ccccc2c1-c1cc(NS(=O)(=O)c2cc(Cl)ccc2Cl)ccc1NC(=O)OC(C)(C)C`: the IC50 was > 50 µM (inactive).
With `CC(C)NCCCC(C)Nc1cc(O)cc2cccnc12` (centres undefined) the figure was 1.56 µM; with `CCN(CC)CC(O)c1ccnc2c(O)cccc12` (centres undefined), > 50 µM (inactive); with `CCc1ccc(CNc2ccc(N3CCN(C(C)=O)CC3)cc2)cc1`, “inactive”.
With `O=C1C(c2nc3ccccc3s2)=C(O)c2ccccc21` the figure was > 50 µM (inactive); with `COc1cc(NCCCC(C)N)c2nccc(Cl)c2c1` (centres undefined), 12.5 µM.
In the case of `C=CCn1c(NC(=O)c2ccccc2Cl)c(C#N)c2nc3ccccc3nc21` it was > 50 µM (inactive); in that of `CCn1nnc(NC(=O)COc2cc(C)ccc2C(C)C)n1`, > 50 µM (inactive).
Regarding `OCCCc1nc2n(n1)C(c1ccccc1)C=C(c1ccccc1)N2` (centres undefined), the IC50 was > 50 µM (inactive).
For `Oc1ccc2[nH]ccc2c1`, the IC50 was > 50 µM (inactive).
With `Cc1cc(=O)oc2c(N)c(O)ccc12` the figure was > 50 µM (inactive); with `Nc1c(S(=O)(=O)c2cccc(Cl)c2)c2nc3ccccc3nc2n1/N=C/c1ccc(O)c(O)c1`, > 50 µM (inactive).
In the case of `COC(=O)C1=C(C)N(c2cccc3ccccc23)C(=O)C1` it was > 50 µM (inactive).
With `COc1cccc2c1C(=O)c1c(O)c3c(c(O)c1C2=O)C[C@@](O)(C(C)=O)C[C@@H]3O[C@H]1C[C@H](N)[C@H](O)[C@H](C)O1` the figure was 0.174 µM; with `O=C1C(c2cnc3ccccc3n2)=C(O)c2ccccc21`, 20 µM.
With `O=C(c1ccc2ccccc2c1)N1CCN(c2ccc(O)cc2)CC1`, the IC50 was > 50 µM (inactive).
`C=CCn1c(N)c(C(=O)OCC(C)C)c2nc3ccccc3nc21`: the IC50 was > 50 µM (inactive).
Turning to `c1ccc2[nH]c(SCc3ccc(-c4nnco4)cc3)nc2c1`, the IC50 is > 50 µM (inactive).
With `COc1ccc(-n2nc3c(c2NC(=O)c2ccc(Br)cc2)CS(=O)C3)cc1` (centres undefined) the figure was > 50 µM (inactive).
With `O=C(NC1(O)C(=O)c2ccccc2C1=O)c1ccccc1` the figure was 19.5 µM.
With `CC(CCN(C)C)Nc1cc(O)cc2cccnc12` (centres undefined) the figure was 1.56 µM; with `O=S(=O)(Nc1ccc(O)c(-c2ccccc2O)c1)c1cc(Cl)ccc1Cl`, > 50 µM (inactive).
`O=C1c2cccnc2C(=O)N1Cc1ccc2c(c1)OCO2`: the IC50 was > 50 µM (inactive).
With `Nc1cccc(S(=O)(=O)Nc2ccc(O)c(-c3ccccc3O)c2)c1` the figure was > 50 µM (inactive); with `Oc1c(I)cc(Cl)c2cccnc12`, > 50 µM (inactive); with `Cc1noc(C(=O)Nc2ccc3c(c2)OCO3)c1Cl`, 22.5 µM.
With `CC(=O)CCc1c(C)[nH]c2ccccc2c1=O` the figure was > 50 µM (inactive).
